From paper PMC8639918, “Mechanism of phosphate sensing and signaling revealed by rice SPX1-PHR2 complex structure” (Nature Communications, 2021) come the findings set out here.

The structures appear in SMILES notation. Positions count from the first letter of the chain named.

What all share (type): binding
In one experiment the target is T1, InsP6-SPX1-PHR2 complex (Oryza sativa, UniProt Q69XJ0).
T1 construct: SPX1 1-198 with T4 lysozyme fused to its C-terminus (crystallisation aid) plus Se-Met PHR2 248-380 (MYB and CC domains), tags cut with TEV, E. coli BL21(DE3), 1:1 heterodimer; with Protein PHOSPHATE STARVATION RESPONSE 2
T1 sequence (Q6Z156 with tags, fused parts or gaps V263M/L278M/L295M/L340M partner, one chain of several): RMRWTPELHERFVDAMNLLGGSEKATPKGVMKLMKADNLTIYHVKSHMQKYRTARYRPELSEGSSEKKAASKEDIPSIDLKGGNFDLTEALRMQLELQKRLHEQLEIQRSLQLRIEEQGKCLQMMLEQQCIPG
Put plainly: X-ray crystal structure, […] Å. Particulars: basic groove between SPX1 helices α1, α2 and α4; allosteric.

The target in experiment [1] is T2, SPX1^1–259 (Oryza sativa, UniProt Q69XJ0).
T2 construct: residues 1-259 (C-terminally truncated), N-terminal 10xHis-MsyB tag cut with TEV, E. coli BL21(DE3), monomer
T2 sequence (Q69XJ0 1-259): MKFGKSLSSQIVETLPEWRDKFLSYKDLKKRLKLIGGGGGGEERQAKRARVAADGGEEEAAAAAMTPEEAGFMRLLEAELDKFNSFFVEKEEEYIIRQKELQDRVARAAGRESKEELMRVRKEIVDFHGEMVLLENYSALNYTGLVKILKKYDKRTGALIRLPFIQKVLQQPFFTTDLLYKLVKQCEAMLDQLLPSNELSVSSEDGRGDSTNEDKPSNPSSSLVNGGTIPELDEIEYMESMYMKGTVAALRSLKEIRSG
Description: thermal shift assay (SYPRO Orange). To be noted: 20 mM HEPES/NaOH pH 7.5, 200 mM NaCl; InsP6 0 to 250 μM.

Experiment [2] has as its target T2, SPX1^1–259. Description: ITC. Particulars: 25 °C; 20 mM HEPES/NaOH pH 7.5, 200 mM NaCl, 2 mM beta-mercaptoethanol. An excerpt: ITC on SPX1^1–259 | In contrast to the moderate InsP6 binding ability of the wild-type protein
Another experiment has as its target T3, SPX1^1–259▵N17 (Oryza sativa, UniProt Q69XJ0).
T3 construct: SPX1 1-259 without the N-terminal helix alpha1 (deltaN17, residues 1-17 deleted), N-terminal 10xHis-MsyB tag cut with TEV, E. coli BL21(DE3)
T3 sequence (Q69XJ0 18-259): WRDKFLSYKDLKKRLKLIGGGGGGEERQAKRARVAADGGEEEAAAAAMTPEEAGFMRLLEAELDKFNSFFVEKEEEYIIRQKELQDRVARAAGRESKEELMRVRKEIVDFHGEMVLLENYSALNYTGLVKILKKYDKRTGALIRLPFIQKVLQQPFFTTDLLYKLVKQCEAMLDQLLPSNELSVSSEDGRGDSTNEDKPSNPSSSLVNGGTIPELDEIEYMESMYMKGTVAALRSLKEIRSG
Put plainly: ITC. To be noted: 25 °C; 20 mM HEPES/NaOH pH 7.5, 200 mM NaCl, 2 mM beta-mercaptoethanol.

In experiment [3] the target is T4, SPX1^1–259 (Oryza sativa, UniProt Q69XJ0, K147A).
T4 construct: residues 1-259 (C-terminally truncated), N-terminal 10xHis-MsyB tag cut with TEV, E. coli BL21(DE3), monomer
T4 sequence (Q69XJ0 1-259 K147A): T2 sequence (Q69XJ0 1-259) with K147A
Put plainly: ITC. The text has this: ITC on SPX1^1–259 | SPX1 K147A mutation had little effect on InsP6 binding affinity
A general note: In ITC the heat of successive injections is recorded.

In experiment [4] the target is T5, SPX1^1–259 (Oryza sativa, UniProt Q69XJ0, Y25F/K29A/K151A).
T5 construct: residues 1-259 (C-terminally truncated), N-terminal 10xHis-MsyB tag cut with TEV, E. coli BL21(DE3), monomer
T5 sequence (Q69XJ0 1-259 Y25F/K29A/K151A): T2 sequence (Q69XJ0 1-259) with Y25F, K29A, K151A
Description: ITC. Particulars: 25 °C; 20 mM HEPES/NaOH pH 7.5, 200 mM NaCl, 2 mM beta-mercaptoethanol.

The term Kd denotes a measure of binding affinity in units of concentration. A low value points to tighter binding. Take `O=P(O)(O)O[C@H]1[C@H](OP(=O)(O)O)[C@@H](OP(=O)(O)O)[C@H](OP(=O)(O)O)[C@@H](OP(=O)(O)O)[C@H]1OP(=O)(O)O` [InsP6]: the “X-ray crystal structure, 2.6 Å” value at InsP6-SPX1-PHR2 complex is listed as “each captured by an SPX1 molecule via a highly basic surface groove”. Further, the Tm entry at SPX1^1–259 [1] is “InsP6 could increase the melting temperature (Tm) of SPX1 greatly”. The dissociation constant (Kd) at SPX1^1–259 [2] is 5.5 ± 0.93 µM; at SPX1^1–259▵N17, 34.1 ± 1.95 µM; at SPX1^1–259 [3] it was 5.69 ± 1.46 µM; on SPX1^1–259 [4], “the SPX1 mutant lost its InsP6-binding activity”.
